The source of these data is patent US9815841B2, “Compounds” (GLAXOSMITHKLINE INTELLECTUAL PROPERTY DEVELOPMENT LIMITED, priority 2014, dated 2017).

SMILES strings stand for the structures.

The assay addresses T1, purified recombinant 6HIS-Tev-LRRK2 (1326-2527) (Homo sapiens, UniProt Q5S007).
T1 construct: A LRRK2 cDNA encoding residues 1326-2527 was received from Dundee University; made in house; host or cells: Spodoptera frugiperda (Sf9) insect cells, baculovirus (pFB-HTb)
T1 sequence (Q5S007 1326-2527): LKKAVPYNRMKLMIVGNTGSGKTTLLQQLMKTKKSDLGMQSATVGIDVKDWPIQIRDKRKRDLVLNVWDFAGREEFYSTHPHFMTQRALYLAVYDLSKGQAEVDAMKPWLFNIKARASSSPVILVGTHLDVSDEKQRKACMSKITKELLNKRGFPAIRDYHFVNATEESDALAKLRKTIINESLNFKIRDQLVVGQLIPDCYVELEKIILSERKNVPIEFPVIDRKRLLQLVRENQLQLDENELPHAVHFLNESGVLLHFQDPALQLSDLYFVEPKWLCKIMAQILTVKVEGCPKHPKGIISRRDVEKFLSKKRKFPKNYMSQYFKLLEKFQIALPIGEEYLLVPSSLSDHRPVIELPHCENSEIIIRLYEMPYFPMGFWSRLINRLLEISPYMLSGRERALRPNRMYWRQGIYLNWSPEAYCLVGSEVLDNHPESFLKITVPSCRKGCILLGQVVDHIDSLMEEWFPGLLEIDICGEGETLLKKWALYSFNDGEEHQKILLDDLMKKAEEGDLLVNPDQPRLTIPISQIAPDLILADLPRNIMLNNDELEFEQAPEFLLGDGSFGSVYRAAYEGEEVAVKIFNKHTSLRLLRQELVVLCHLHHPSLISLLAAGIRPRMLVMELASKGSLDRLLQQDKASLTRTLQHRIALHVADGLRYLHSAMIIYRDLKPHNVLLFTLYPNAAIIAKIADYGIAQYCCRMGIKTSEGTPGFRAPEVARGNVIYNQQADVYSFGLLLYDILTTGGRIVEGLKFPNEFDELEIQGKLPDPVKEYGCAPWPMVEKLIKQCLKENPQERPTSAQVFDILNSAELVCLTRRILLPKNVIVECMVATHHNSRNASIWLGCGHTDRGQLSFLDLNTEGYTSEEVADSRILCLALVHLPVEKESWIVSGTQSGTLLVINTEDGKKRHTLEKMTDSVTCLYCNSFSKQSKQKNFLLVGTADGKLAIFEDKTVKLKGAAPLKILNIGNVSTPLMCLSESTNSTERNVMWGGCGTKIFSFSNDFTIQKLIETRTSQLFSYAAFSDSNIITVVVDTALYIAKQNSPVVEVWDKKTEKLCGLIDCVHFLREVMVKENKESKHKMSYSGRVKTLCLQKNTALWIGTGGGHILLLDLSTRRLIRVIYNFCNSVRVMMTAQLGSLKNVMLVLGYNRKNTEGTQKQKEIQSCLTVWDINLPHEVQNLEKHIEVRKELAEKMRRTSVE
As to the kind of experiment: Recombinant LRRK2 enzyme peptide substrate TR-FRET assay. The assay is classed as biochemical. The note with it: 60 nM LRRK2 (1326-2527), 1 uM Biotin-longer LRRKtide, 10 uM ATP; read-out: recombinant LRRK2 enzyme peptide substrate TR-FRET assay (pIC50) (converted). How it is done: This gene fragment was subcloned into pFB-HTb (Invitrogen) using BamHI and NotI restriction sites. The LRRK2 plasmid was recombined into the baculovirus genome according to the BAC-to-BAC protocol described by Invitrogen. Transfection into Spodoptera frugiperda (Sf9) insect cells was performed using Cellfectin (Invitrogen), according to the manufacturer's protocol to generate P1 and P2 baculovirus stocks.
Sf9 cells were grown in HyClone SFX (Thermo Scientific) growth media at 27° C., 80 rpm in shake flask until of a sufficient volume to inoculate a bioreactor. […] The cells were infected with P2 Baculovirus at a multiplicity of infection (MOI) of 3. The cultivation was continued for a 48 hour expression phase. The infected cells were removed from the growth media by centrifugation at 2500 g using a Sorvall RC 3C Plus centrifuge at 2500 g for 20 minutes. The cell pellet was immediately frozen and subsequently supplied for purification.
A 260 g pellet was allowed to thaw in a water bath at 27° C. with 800 ml lysis buffer/buffer A (50 mm Tris-HCl pH 8.5, 300 mM NaCl, 1 mm DTT, 10% glycerol, 1 ml/L calbiochem complete protease inhibitor cocktail and benzonase (50 ul/800 ml)) before being dounce homogenised on ice using 20 strokes per 100 ml. The suspension was packed in ice and sonicated at 50% amplitude for 3 min 10 sec on/off using a ¾″ probe. The suspension was then centrifuged at 100,000 g for 90 min, at 4° C.
The lysate (700 ml) was decanted from the insoluble pellet and contacted for 3 h at 4 C with 10 ml His bind Ni NTA resin by end over end mixing. The resin was recovered by centrifugation, 3000 g, 5 min at 4 C, and packed in an XK16 column. The column was then washed with 10 column volumes buffer A, 10 column volumes buffer B (buffer A+1M NaCl) and 10 column volumes buffer C (buffer A+20 mM imidazole). The column was then eluted with 15 column volumes buffer D (buffer A+300 mM imidazole) collecting 2 ml fractions. All washes and elution were conducted at 4 ml/min.
Fractions identified by SDS-PAGE as containing protein of interest were pooled and loaded directly onto a 320 ml SEC Superdex 200 pg column that was pre-equilibrated with buffer E (50 mM Tris-HCl pH 8.5, 300 mM NaCl, 10% glycerol, 1 mM DTT). The column was loaded and eluted with 1.2 column volumes buffer E at 2 ml/min collecting 2 ml fractions. Fractions identified by SDS-PAGE as containing protein of interest were tested for activity.
Production of Biotin-Longer LRRKtide
The resulting crude peptide was cleaved from the resin using a 95:2.5:2.5 mix of trifluoroacetic acid:triisopropylsilane:water.
Recombinant LRRK2 Enzyme Peptide Substrate TR-FRET Assay
Assay Protocol • 1. A 10 mM test compound was dissolved in 100% DMSO and serially diluted 1 in 4. 100 nL was then added to a 384 well low volume black plate, excluding columns 6 and 18. 100 nL of DMSO was added to columns 6 and 18 as controls wells. […] Test plates were then incubated for 30 minutes at room temperature. • 3. 3 uL ‘substate solution’ containing 2 uM Biotin-longer LRRKtide peptide substrate and 20 uM ATP was added to all wells of the plate using a multidrop combi dispenser giving a final assay concentration of 1 uM Biotin-longer LRRKtide and 10 uM ATP. Test plates were then incubated for 2 hours at room temperature. (Incubation may vary depending on rate and linearity of reaction with different enzyme batches). • 4. […] Data is analysed using ActivityBase software (IDBS). Dilutions and concentrations of reagents determined on a batch to batch basis
For orientation: TR-FRET usually uses a lanthanide donor and a delayed reading to cut background.
Take `CCOc1nc(Nc2ccc(C(=O)N3CC4CC4(CO)C3)cc2OC)nc2[nH]ccc12` (single isomer, unassigned) [Example E46, (4-((4-ethoxy-7H-pyrrolo-[2,3-d]-pyrimidin-2-yl)amino)-3-methoxyphenyl)(1-(hydroxymethyl)-3-azabicyclo-[3.1.0]-hexan-3-yl)methanone]: the IC50 was at most 10 nM.

As for `CCOc1nc(Nc2ccc(C(=O)N3CCC4(CC3)CC4COC)cc2OC)nc2[nH]ccc12` (single isomer, unassigned) [Example E52, (4-((4-ethoxy-7H-pyrrolo-[2,3-d]-pyrimidin-2-yl)amino)-3-methoxyphenyl)(1-(methoxymethyl)-6-azaspiro-[2.5]-octan-6-yl)methanone], the IC50 was at most 10 nM.

With `CCOc1nc(Nc2ccc(C(=O)N3CC4CC4(COC)C3)cc2OC)nc2[nH]ccc12` (single isomer, unassigned) [Example E64, (4-((4-ethoxy-7H-pyrrolo-[2,3-d]pyrimidin-2-yl)amino)-3-methoxyphenyl)-(1-(methoxymethyl)-3-azabicyclo[3.1.0]hexan-3-yl)methanone], the IC50 is at most 10 nM.

Take `CCOc1nc(Nc2cc(F)c(C(=O)N3CCN(C)CC3)cc2OC)nc2[nH]ccc12` [Example E5, (4-((4-ethoxy-7H-pyrrol-[2,3-d]pyrimidin-2-yl)amino)-2-fluoro-5-methoxyphenyl)(4-methylpiperazin-1-yl)-methanone]: the IC50 was at most 10 nM.

`CCOc1nc(Nc2ccc(C(=O)N3CCN(C)CC3)cc2OC(F)F)nc2[nH]ccc12` [Example E7, (3-(difluoromethoxy)-4-((4-ethoxy-7H-pyrrolo-[2,3-d]-pyrimidin-2-yl)amino)phenyl)(4-methylpiperazin-1-yl)-methanone]: the IC50 was at most 10 nM.

For `CCOc1nc(Nc2ccc(C(=O)N3CCN(C)CC3)cc2OCC2CC2)nc2[nH]ccc12` [Example E8, (3-(cyclopropylmethoxy)-4-((4-ethoxy-7H-pyrrolo-[2,3-d]-pyrimidin-2-yl)amino)phenyl)(4-methylpiperazin-1-yl)-methanone], the IC50 was at most 10 nM.

As for `CCOc1cc(C(=O)N2CCN(C)CC2)ccc1Nc1nc(OCC)c2cc[nH]c2n1` [Example E25, (3-ethoxy-4-((4-ethoxy-7H-pyrrolo-[2,3-d]pyrimidin-2-yl)amino)phenyl)(4-methylpiperazin-1-yl)methanone], the IC50 was at most 10 nM.

On to `CCOc1nc(Nc2ccc(C(=O)N3CCN(C)[C@H](C)C3)cc2OC)nc2[nH]ccc12` [Example E29, (R)-(3,4-dimethylpiperazin-1-yl)-(4-((4-ethoxy-7H-pyrrolo-[2,3-d]-pyrimidin-2-yl)amino)-3-methoxyphenyl)methanone], for which the IC50 was at most 10 nM.

In the case of `CCOc1nc(Nc2ccc(C(=O)N3CCC[C@@H]3COC)cc2OC)nc2[nH]ccc12` [Example E35, (R)-(4-((4-ethoxy-7H-pyrrolo-[2,3-d]pyrimidin-2-yl)amino)-3-methoxyphenyl)(2-(methoxymethyl)pyrrolidin-1-yl)methanone], the IC50 was at most 10 nM.

As to `CCOc1nc(Nc2ccc(C(=O)N3CCC(F)CC3)cc2OC)nc2[nH]ccc12` [Example E36, (4-((4-ethoxy-7H-pyrrolo-[2,3-d]pyrimidin-2-yl)amino)-3-methoxyphenyl)(4-fluoropiperidin-1-yl)methanone], the IC50 is at most 10 nM.

With `CCOc1nc(Nc2ccc(C(=O)N3CCN(C)[C@@H](C)C3)cc2OC)nc2[nH]ccc12` [Example E41, (S)-(3,4-dimethylpiperazin-1-yl)(4-((4-ethoxy-7H-pyrrolo-[2,3-d]-pyrimidin-2-yl)amino)-3-methoxyphenyl)methanone], the IC50 was at most 10 nM.

As to `CCOc1nc(Nc2ccc(C(=O)N3CCC(COC)CC3)cc2OC)nc2[nH]ccc12` [Example E42, (4-((4-ethoxy-7H-pyrrolo-[2,3-d]-pyrimidin-2-yl)amino)-3-methoxyphenyl)(4-(methoxymethyl)piperidin-1-yl)methanone], the IC50 is at most 10 nM.

On to `CCOc1nc(Nc2ccc(C(=O)N3CCCC4(COC4)C3)cc2OC)nc2[nH]ccc12` [Example E44, (4-((4-ethoxy-7H-pyrrolo-[2,3-d]pyrimidin-2-yl)amino)-3-methoxyphenyl)(2-oxa-6-azaspiro-[3.5]nonan-6-yl)methanone], for which the IC50 is at most 10 nM.

`CCOc1nc(Nc2ccc(C(=O)N3[C@H](C#N)C[C@@H]4C[C@@H]43)cc2OC)nc2[nH]ccc12` [Example E66, (1 S,3S,5S)-2-(4-((4-ethoxy-7H-pyrrolo-[2,3-d]pyrimidin-2-yl)amino)-3-methoxybenzoyl)-2-azabicyclo-[3.1.0]-hexane-3-carbonitrile]: the IC50 is at most 10 nM.
